{"source": "the supplement of paper PMC10307832", "assay_in_all_cases": "relative viability (nuclei count vs DMSO), 5 days (fraction); higher = more cells survive", "key": {"[1]": {"compound": "C1=CC2=C(C=C(C(=C2N=C1)O)N=NC3=CC4=C(C=C3)C=C(C=C4)S(=O)(=O)O)S(=O)(=O)O + CC(=O)c1c(C)c2cnc(Nc3ccc(N4CCNCC4)cn3)nc2n(C2CCCC2)c1=O [Palbociclib] (partner 0.5 µM)", "method_in_brief": "(§1)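 Five library-drug doses in √10 steps were combined with a fixed anchor-drug dose, or a single drug was given alone, by pin tool to lung cancer cell lines in 1536-well plates the day after seeding. Nuclei were stained and counted after 5 days. Relative viability is the nuclei count in treated wells over that in vehicle wells, taken as the median of duplicate plates.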"}, "AT-7519 + Foretinib": {"compound": "O=C(NC1CCNCC1)c1n[nH]cc1NC(=O)c1c(Cl)cccc1Cl [AT-7519] + COc1cc2c(Oc3ccc(NC(=O)C4(C(=O)Nc5ccc(F)cc5)CC4)cc3F)ccnc2cc1OCCCN1CCOCC1 [Foretinib] (partner 0.25 µM)", "method_in_brief": "as §1"}, "AT-7519 + Dasatinib": {"compound": "O=C(NC1CCNCC1)c1n[nH]cc1NC(=O)c1c(Cl)cccc1Cl [AT-7519] + Cc1nc(Nc2ncc(C(=O)Nc3c(C)cccc3Cl)s2)cc(N2CCN(CCO)CC2)n1 [Dasatinib] (partner 0.075 µM)", "method_in_brief": "as §1"}, "AT-7519 + Pemetrexed": {"compound": "O=C(NC1CCNCC1)c1n[nH]cc1NC(=O)c1c(Cl)cccc1Cl [AT-7519] + Nc1nc2[nH]cc(CCc3ccc(C(=O)N[C@@H](CCC(=O)O)C(=O)O)cc3)c2c(=O)[nH]1 [Pemetrexed] (partner 0.2 µM)", "method_in_brief": "as §1"}}}
{"cell line": "UMC-11", "values": [{"measurement": "relative viability", "setting": "[1]; first compound 0.08 µM", "result": 0.325}, {"measurement": "relative viability", "setting": "[1]; first compound 0.253 µM", "result": 0.329}, {"measurement": "relative viability", "setting": "[1]; first compound 0.8 µM", "result": 0.326}, {"measurement": "relative viability", "setting": "[1]; first compound 2.53 µM", "result": 0.339}, {"measurement": "relative viability", "setting": "[1]; first compound 8 µM", "result": 0.324}, {"measurement": "relative viability", "setting": "AT-7519 + Foretinib; first compound 0.01 µM", "result": 1.1}, {"measurement": "relative viability", "setting": "AT-7519 + Foretinib; first compound 0.03162 µM", "result": 0.934}, {"measurement": "relative viability", "setting": "AT-7519 + Foretinib; first compound 0.3162 µM", "result": 0.838}, {"measurement": "relative viability", "setting": "AT-7519 + Foretinib; first compound 1 µM", "result": 0.457}, {"measurement": "relative viability", "setting": "AT-7519 + Dasatinib; first compound 0.01 µM", "result": 0.413}, {"measurement": "relative viability", "setting": "AT-7519 + Dasatinib; first compound 0.03162 µM", "result": 0.482}, {"measurement": "relative viability", "setting": "AT-7519 + Dasatinib; first compound 0.3162 µM", "result": 0.297}, {"measurement": "relative viability", "setting": "AT-7519 + Dasatinib; first compound 1 µM", "result": 0.238}, {"measurement": "relative viability", "setting": "AT-7519 + Pemetrexed; first compound 0.01 µM", "result": 0.807}, {"measurement": "relative viability", "setting": "AT-7519 + Pemetrexed; first compound 0.03162 µM", "result": 0.801}, {"measurement": "relative viability", "setting": "AT-7519 + Pemetrexed; first compound 0.3162 µM", "result": 0.586}, {"measurement": "relative viability", "setting": "AT-7519 + Pemetrexed; first compound 1 µM", "result": 0.331}]}
